Measured values from patent US6001810A, “Methods for treating retroviral infection” (Eli Lilly and Company, priority 1990, dated 1999).
Converted amounts (≈) assume the structure as drawn. Each block holds one compound with its values, some of them ahead of it. Non-standard residues stand in square brackets, D forms with d. Residues, ends and D or L forms follow the SMILES beside them. *: point of attachment. Sta = CC(C)C[C@H](N)[C@@H](O)CC(=O)O; Isovaleryl = CC(C)CC(=O)*

Experiments:
CEM cells = format: cell-based
Description: Quantitative evaluation of the viral inhibition were performed on the T-cell lymphoblastoid cell lines MT-2 (Harada et al., 1985, Science 229:563-566) and CEM (Nara and Fischinger, 1988, Nature 332:469-470). The cells were infected with the HTLV-IIIB strain of HIV-1 from the supernatant fluid of infected human T-lymphocyte cell line H9 (Popovic, M. et al., 1984, Science 224:497-500). Each of these three cell lines are publicly available from the National Institutes of Health (NIH) AIDS Research and Reference Reagent Program. The H9/HTLC-IIIB cell line is available under catalogue number 231, while CEM cell line is available under catalogue number 117 and the MT-2 cell line is available under the catalogue number 237. MT-2 and CEM cells were grown in RPMI 1640 medium supplemented with 10% (v/v) fetal calf serum, 100 U/ml penicillin, 100 μg/ml streptomycin and 25 mM HEPEs buffer. H9 cells were grown in the same medium except 20% fetal calf serum was used. The peptides were diluted in the medium used for MT-2 and CEM cells. Cell cultures were maintained in disposable tissue culture labware at 37° C. in a humidified atmosphere of 5% CO2 in air.
The inhibitors were dissolved in DMSO at 40 mg/ml or sterile water at 2 mg/ml, then dilutions were made in medium. The dilutions were added to micro-titer plates in 100 μl/well aliquots so that the high drug concentration for each screen was 100 μg/ml after the addition of cells to the well.
Susceptible MT-2 and CEM cells were grown and the cell population determined by a trypan blue viable cell count. The desired total number of cells were placed in a sterile, disposable 50 ml conical centrifuge tube and virus was added to give an MOI (Multiplicity of Infection) of 0.03 TCID50 /cell (Tissue Culture Infectious Dose) on MT-2 cells and approximately 0.12 TCID50 /cell on CEM cells. Fresh medium was added to adjust the cell density to 1×10^5 cells/ml, then the virus-cell suspension was incubated at 37° C. for 1 to 2 hours until plating. Uninfected controls cell were prepared in the same manner but without the addition of virus. Infected and uninfected cells were added to plates in 100 μl/well aliquots to give a starting cell number of 1×10^4 cells/well. The plates were incubated for seven days in a humidified atmosphere of 5% CO2 in air.
Reagents for colorimetric evaluation of cell viability were prepared by mixing the tetrazolium reagent, XTT, and phenazine methosulfate (PMS) to final concentrations of 200 μg/ml and 0.02 mM, respectively. Fifty microliters of the XTT-PMS solution was added to each well of the microtiter plates, then the plates were incubated in the CO2 incubator for another four hours. The lids were removed from the plates and replaced with adhesive plate sealers. The plates were read with the sealers in place in a Vmax Plate Reader® at 450 nm and 650 nm. The cytopathic effect (CPE) and percentage of cell viability were then calculated.
The activity and cytotoxicity of several other peptides were also assayed in CEM cells using the same procedure as described above. These assays also included toxicity and activity levels of both 25% and 50%.

Mo-MuLV = test: Moloney Murine Leukemia Virus Assay, CPE inhibition in SC-1/XC cells; format: cell-based; design: key: 4+(>90%); 3+(>60%); 2+(>40%); 1+(>20%); -(Negative)
Description: (§1) About 3 to 5×10^3 SC-1 cells (available from the American Type Culture Collection, Rockville, Md. under the accession number ATCC CRL-1404) per well of a 96-well microtiter plate were seeded in minimal essential medium supplemented with 5% fetal bovine serum, penicillin (150 U/ml), Streptomycin (150 μg/ml) and polybrene (2 μg/ml), then infected with Mo-MuLV (Multiplicity of Infection=10 PFU/cell) the next day. The virus was allowed to adsorb to the cells for 1 hour, then medium containing serial dilutions of P-7, P-9 or medium alone was added to the cells. Pepstatin A ([…]-Val-Val-Statine-Ala-Statine) and AZT (3'-Azido-3'-deoxythymidine) were also added as controls. After incubation for 5 days (when cells were confluent) the SC-1 cells were UV irradiated for 10 seconds and 5 to 8×10^4 XC cells (ATCC CCL-165) per well were added. Generally, about two additional days of incubation were required to obtain full virus-induced cytopathic effect.

MLV = MLV XC Plaque Reduction Assay - Virus Yield; format: cell-based, Murine Leukemia Virus
Description: as §1
The assay described above was also preferred to determine the virus yield. In this experiment, the supernatents were removed from the SC-1 cells four days after infection and tested for MLV titers, using the XC-plaque assay as previously described.

Compound: CC(=O)N[C@@H](Cc1ccc(O)cc1)C(=O)N1CCC[C@H]1C(=O)N[C@@H](Cc1ccccc1)C(=O)N[C@H](C(=O)N[C@@H](CC(C)C)[C@@H](O)CC(=O)N[C@@H](CC(C)C)C(=O)N[C@@H](Cc1ccccc1)C(N)=O)C(C)C [P-5, Ac Tyr Pro Phe Val Statine Leu Phe NH2] (Ac-YPFV[Sta]LF-NH2)
IC25 (Table V) (CEM cells): > 100 µg/mL
TC50 (concentration that reduced cell viability by 50%) (CEM cells): > 100 µg/mL

Compound: CC(=O)N[C@@H](Cc1c[nH]c2ccccc12)C(=O)N1CCC[C@H]1C(=O)N[C@@H](Cc1ccccc1)C(=O)N[C@H](C(=O)N[C@@H](CC(C)C)[C@@H](O)CC(=O)N[C@@H](CC(C)C)C(=O)N[C@@H](Cc1ccccc1)C(N)=O)C(C)C [P-8, Ac Trp Pro Phe Val Statine Leu Phe NH2] (Ac-WPFV[Sta]LF-NH2)
IC25 (Table V) (CEM cells): 49 µg/mL (≈ 48.7 µM)
TC50 (concentration that reduced cell viability by 50%) (CEM cells): 66 µg/mL (≈ 65.6 µM)

Compound: CC(C)CC(=O)N[C@H](C(=O)N[C@H](C(=O)N[C@@H](CC(C)C)[C@@H](O)CC(=O)N[C@@H](C)C(=O)N[C@@H](CC(C)C)[C@@H](O)CC(=O)O)C(C)C)C(C)C [Pepstatin A, Isovaline-Val-Val-Statine-Ala-Statine] (Isovaleryl-VV[Sta]A[Sta]-OH)
CPE inhibition score (Mo-MuLV; 1.56 μg/ml): -
CPE inhibition score (Mo-MuLV; 3.12 μg/ml): -
CPE inhibition score (Mo-MuLV; 6.25 μg/ml): -
CPE inhibition score (Mo-MuLV; 12.5 μg/ml): -
CPE inhibition score (Mo-MuLV; 25 μg/ml): -
CPE inhibition score (Mo-MuLV; 50 μg/ml): -
% Inhibition (virus yield) (MLV; 25 μg/ml): 52%
Yield (MLV; 25 μg/ml): 9.0 × 10^4 PFU/ML
% Inhibition (virus yield) (MLV; 50 μg/ml): 94%
Yield (MLV; 50 μg/ml, supernatants four days after infection): 1.2 × 10^4 PFU/ML

More lines, main results first:

IC25 (Table V) (CEM cells): > 100 µg/mL
Compound: COc1ccc(C[C@H](NC(C)=O)C(=O)N2CCC[C@H]2C(=O)N[C@@H](Cc2ccccc2)C(=O)N[C@H](C(=O)N[C@@H](CC(C)C)[C@@H](O)CC(=O)N[C@@H](CC(C)C)C(=O)N[C@@H](Cc2ccccc2)C(N)=O)C(C)C)cc1 [P-9, Ac YOM Pro Phe Val Statine Leu Phe NH2] (Ac-Y(Me)PFV[Sta]LF-NH2)
TC50 (concentration that reduced cell viability by 50%) (CEM cells): > 100 µg/mL

IC25 (Table V) (CEM cells): 49 µg/mL (≈ 50.7 µM)
Compound: CC(=O)N[C@@H](Cc1ccccc1)C(=O)N1CCC[C@H]1C(=O)N[C@@H](Cc1ccccc1)C(=O)N[C@H](C(=O)N[C@@H](CC(C)C)[C@@H](O)CC(=O)N[C@@H](CC(C)C)C(=O)N[C@@H](Cc1ccccc1)C(N)=O)C(C)C [P-10, Ac Phe Pro Phe Val Statine Leu Phe NH2] (Ac-FPFV[Sta]LF-NH2)
TC50 (concentration that reduced cell viability by 50%) (CEM cells): 55 µg/mL (≈ 56.9 µM)
